Laboratory results published in patent US11040034B2 (priority 2016, dated 2021).
Read-outs that look alike come from different tables or passages of the source.

What was measured:
[1] = rat liver microsomes
[2] = cynomolgus monkey liver microsomes

CCS(=O)(=O)NCc1cc(-c2nc3cc(F)c(F)cc3n2C2CC2)cnn1 [Example 52, N-((5-(1-Cyclopropyl-5,6-difluoro-1H-benzo[d]imidazol-2-yl)pyridazin-3-yl)methyl)ethanesulfonamide]
metabolic stability in comparison to comparison example [1]: greater metabolic stability | metabolic stability in comparison to comparison example [2]: greater metabolic stability
